Source: patent US20100041597A1, “PEPTIDES TARGETED TO PROTEIN KINASE C ISOFORMS AND USES THEREOF” (priority 2005, published 2010)

Experiments:
PKC-βII = PKC-βII (Homo sapiens, UniProt P05771); experiment: In vitro competition with anti-PKC-βII antibody, Protocol B, IMR-32 cells; format: binding; design: PRE 3 and PRE 4 in IMR-32 Neuroblastoma Cells: Protocol B; endogenous in cells; host or cells: IMR-32; details: for Band Intensity: control band intensity 98.6, Table 9
Method: (§1) Peptides PRE 3 and PRE 4 (see Table 3) were tested for their ability to interfere with the binding of isoform-specific polyclonal antibodies (Santa Cruz Biotechnology, Inc.) to PKC-α, PKC-βI or PKC-βII using the general protocol described in Example 3.

PKC-α [1] = molecular target: T1, PKC-α (Homo sapiens, UniProt P17252); experiment: Subcellular localisation of PKC-α in IMR-32 cells; format: cell-based; design: subcellular localisation of endogenous PKC-α in IMR-32 cells; endogenous in cells; host or cells: IMR-32; details: 10 mg/ml, pinocytic endocytosis
Method: Peptides PRE 3 or PRE 4 (10 mg/ml) were introduced into human neuroblastoma cells (IMR-32) by pinocytic endocytosis. The cells were fixed and stained with rabbit PKC-A primary antibody and anti-rabbit Alexa-488 or Alexa-800 secondary antibody.
In most of the cells PKC-α can be seen to be located in the cytoplasm, around the nucleus and at the plasma membrane (where it becomes activated).

PKC-βI = PKC-βI (Homo sapiens, UniProt P05771); experiment: In vitro competition with anti-PKC-βI antibody, Protocol B, IMR-32 cells; format: binding; design: PRE 3 and PRE 4 in IMR-32 Neuroblastoma Cells: Protocol B; endogenous in cells; host or cells: IMR-32; details: for Band Intensity: control band intensity 170.5, Table 9
PKC-βI, sequence (P05771 whole entry): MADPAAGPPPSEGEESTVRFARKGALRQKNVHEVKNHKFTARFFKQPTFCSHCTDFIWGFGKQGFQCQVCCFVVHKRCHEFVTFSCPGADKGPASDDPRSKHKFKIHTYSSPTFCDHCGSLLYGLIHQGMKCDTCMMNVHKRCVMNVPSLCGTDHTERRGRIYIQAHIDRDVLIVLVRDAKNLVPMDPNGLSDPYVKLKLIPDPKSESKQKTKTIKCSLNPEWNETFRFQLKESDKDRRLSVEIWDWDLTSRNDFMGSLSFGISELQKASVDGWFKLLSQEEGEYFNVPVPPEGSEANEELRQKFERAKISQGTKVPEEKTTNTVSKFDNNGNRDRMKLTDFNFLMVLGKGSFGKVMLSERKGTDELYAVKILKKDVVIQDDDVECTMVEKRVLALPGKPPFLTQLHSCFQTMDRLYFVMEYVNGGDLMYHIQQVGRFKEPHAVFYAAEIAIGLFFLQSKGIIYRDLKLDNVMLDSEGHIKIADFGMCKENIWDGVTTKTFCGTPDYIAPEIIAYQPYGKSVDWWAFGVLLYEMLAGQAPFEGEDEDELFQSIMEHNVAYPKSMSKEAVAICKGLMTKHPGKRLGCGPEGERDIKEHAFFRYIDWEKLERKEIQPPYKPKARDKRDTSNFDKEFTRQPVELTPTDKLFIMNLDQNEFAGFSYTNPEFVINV
Method: (§2) The ability of the peptides PRE 2 and PRE 3 (see Table 3) to interfere with the binding of a PKC-α-specific polyclonal antibody (Santa Cruz Biotechnology, Inc.) to PKC-α was determined using a modified version of the protocol outlined above in which the test peptide was added directly to the cell extract prior to electrophoresis at a concentration of either 5× or 15× the concentration of the protein applied to each well of the gel for the Western blots (20 μg).
as §1

PKC-α [2] = molecular target: T1, PKC-α; experiment: In vitro competition with anti-PKC-α antibody, Protocol B (peptide added to cell extract before electrophoresis), IMR-32 cells; format: binding; design: subcellular localisation of endogenous PKC-α in IMR-32 cells; endogenous in cells; host or cells: IMR-32; details: PKC-α; for Band Intensity: control band intensity 302.5, Table 9
Method: as §1

PKC-ε = experiment: In vitro competition with anti-PKC-ε antibody, Protocol B, IMR-32 cells; format: binding, human
Method: as §2
Peptides PRE 2, PRE 3 and PRE 4 (see Table 3) were tested for their ability to interfere with the binding of isoform-specific polyclonal antibodies (Santa Cruz Biotechnology, Inc.) to PKC-ε using the general protocol described in Example 3. Two bands, representing alternate splicing variants of PKC-ε, were identified on the Western blot using this anti-PKC-ε antibody.

PKC-β = experiment: In vitro competition with anti-PKC-β antibody, Protocol A, IMR-32 cells; format: binding, human; details: for Band Intensity / Inhibition (%) / Relative Intensity (%): PKC-β, IMR-32, Table 6
Method: Cell lysates from either IMR-32 (human neuroblastoma) cells or C6Cx43 cells (rat glioma transfected cells overexpressing connexin 43) were obtained using standard protocols and the proteins of the lysate were separated by SDS PAGE electrophoresis and electrotransferred onto a nitrocellulose membrane. The membrane was incubated for 30 minutes in blocking buffer (TBST) containing the test peptide at either 5× or 20× the concentrations of the primary antibody. A primary polyclonal antibody specific for PKC-α (Santa Cruz Biotechnology, Inc., CA) was then added (15 μg/ml) and the membrane incubated for a further 45 minutes. Finally, the primary antibody was detected with a secondary antibody conjugated to alkaline phosphatase using standard procedures. The intensity of the band corresponding to PKC-α was assessed by scanning and densitometry using the Gel-Pro software (Media Cybernetics) to obtain relative band intensities (average of 3 replicas). Control assays were conducted as described above except that blocking buffer without peptide was used.
Peptides PRE 1, PRE 2 and PRE 3 (see Table 3) were tested for their ability to interfere with the binding of a PKC-β-specific polyclonal antibody (Santa Cruz Biotechnology, Inc.) to PKC-β using the general protocol described in Example 1. […] It is worth noting in this regard that PKC-α and PKC-β belong to the same sub-group of PKCs (cPKCs).

PKC-βII, sequence (P05771 1-673 isoform P05771-2): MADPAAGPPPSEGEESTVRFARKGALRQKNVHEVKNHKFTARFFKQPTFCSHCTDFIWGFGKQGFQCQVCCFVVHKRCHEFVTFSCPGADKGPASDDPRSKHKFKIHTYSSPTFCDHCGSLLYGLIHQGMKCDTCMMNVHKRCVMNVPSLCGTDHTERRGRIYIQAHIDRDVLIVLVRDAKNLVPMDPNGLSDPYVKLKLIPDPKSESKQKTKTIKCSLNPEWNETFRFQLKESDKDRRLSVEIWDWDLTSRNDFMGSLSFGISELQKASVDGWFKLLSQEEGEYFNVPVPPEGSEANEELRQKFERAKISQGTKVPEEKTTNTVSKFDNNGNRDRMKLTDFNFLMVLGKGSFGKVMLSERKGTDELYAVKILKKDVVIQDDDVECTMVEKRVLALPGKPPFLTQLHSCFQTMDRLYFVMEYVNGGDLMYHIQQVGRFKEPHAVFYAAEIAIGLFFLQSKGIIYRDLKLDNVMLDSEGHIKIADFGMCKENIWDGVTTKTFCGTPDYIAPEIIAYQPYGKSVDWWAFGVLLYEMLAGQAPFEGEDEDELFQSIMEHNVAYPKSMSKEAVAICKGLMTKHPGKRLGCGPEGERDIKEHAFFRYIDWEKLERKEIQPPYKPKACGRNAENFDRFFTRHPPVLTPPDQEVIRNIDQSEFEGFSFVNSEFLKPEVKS

Ac-KDAQNLIGISI-NH2 [PRE 4, Ac-KDAQNLIGISI-NH2]
effect on antibody binding to PKC-βII (PKC-βII): some cross-reactivity
inhibition at 0.1 mg (PKC-βII; 100 μg, PKC-βII, Table 9): 29%
remaining activity at 0.1 mg (PKC-βII; 100 μg, PKC-βII, Table 9, read-out: Relative Intensity (%)): 69.5%
Band Intensity (PKC-βII; 100 μg, PKC-βII): 69.58
inhibition at 0.2 mg (PKC-βII; 200 μg, PKC-βII, Table 9): 100%
remaining activity at 0.2 mg (PKC-βII; 200 μg, PKC-βII, Table 9, read-out: Relative Intensity (%)): 0%
Band Intensity (PKC-βII; 200 μg, PKC-βII): 0.0
inhibition at 0.3 mg (PKC-βII; 300 μg, PKC-βII, Table 9): 100%
remaining activity at 0.3 mg (PKC-βII; 300 μg, PKC-βII, Table 9, read-out: Relative Intensity (%)): 0%
Band Intensity (PKC-βII; 300 μg, PKC-βII): 0.0
effect on subcellular localisation of PKC-α (PKC-α [1]): prevented translocation of PKC-α to the membrane
effect on antibody binding to PKC-βI (PKC-βI): some cross-reactivity
inhibition at 0.1 mg (PKC-βI; 100 μg, PKC-βI, Table 9): 34%
remaining activity at 0.1 mg (PKC-βI; 100 μg, PKC-βI, Table 9, read-out: Relative Intensity (%)): 66%
Band Intensity (PKC-βI; 100 μg, PKC-βI): 112.5
inhibition at 0.2 mg (PKC-βI; 200 μg, PKC-βI, Table 9): 100%
remaining activity at 0.2 mg (PKC-βI; 200 μg, PKC-βI, Table 9, read-out: Relative Intensity (%)): 0%
Band Intensity (PKC-βI; 200 μg, PKC-βI): 0.0
inhibition at 0.3 mg (PKC-βI; 300 μg, PKC-βI, Table 9): 100%
remaining activity at 0.3 mg (PKC-βI; 300 μg, PKC-βI, Table 9, read-out: Relative Intensity (%)): 0%
Band Intensity (PKC-βI; 300 μg, PKC-βI): 0.0
inhibition at 0.1 mg (PKC-α [2]; 100 μg, Table 9): 89.4%
remaining activity at 0.1 mg (PKC-α [2]; 100 μg, Table 9, read-out: Relative Intensity (%)): 10.6%
Band Intensity (PKC-α [2]; 100 μg): 32.2
inhibition at 0.2 mg (PKC-α [2]; 200 μg, Table 9): 99.5%
remaining activity at 0.2 mg (PKC-α [2]; 200 μg, Table 9, read-out: Relative Intensity (%)): 0.5%
Band Intensity (PKC-α [2]; 200 μg): 1.5
inhibition at 0.3 mg (PKC-α [2]; 300 μg, Table 9): 100%
remaining activity at 0.3 mg (PKC-α [2]; 300 μg, Table 9, read-out: Relative Intensity (%)): 0%
Band Intensity (PKC-α [2]; 300 μg): 0.0
effect on antibody binding to PKC-ε (PKC-ε): some cross-reactivity with PKC-ε
Band Intensity (PKC-ε; 20 μg, PKC-ε Band 1, Table 10): 184.38
Inhibition (%) (PKC-ε; 20 μg, PKC-ε Band 1, Table 10): 42.9%
Relative Intensity (%) (PKC-ε; 20 μg, PKC-ε Band 1, Table 10): 57.1%
Band Intensity (PKC-ε; 20 μg, PKC-ε Band 2, Table 10): 152.66
Inhibition (%) (PKC-ε; 20 μg, PKC-ε Band 2, Table 10): 46.6%
Relative Intensity (%) (PKC-ε; 20 μg, PKC-ε Band 2, Table 10): 53.33%
Band Intensity (PKC-ε; 50 μg, PKC-ε Band 1, Table 10): 0.0
Inhibition (%) (PKC-ε; 50 μg, PKC-ε Band 1, Table 10): 100.0%
Relative Intensity (%) (PKC-ε; 50 μg, PKC-ε Band 1, Table 10): 0.0%
Band Intensity (PKC-ε; 50 μg, PKC-ε Band 2, Table 10): 0.0
Inhibition (%) (PKC-ε; 50 μg, PKC-ε Band 2, Table 10): 100.0%
Relative Intensity (%) (PKC-ε; 50 μg, PKC-ε Band 2, Table 10): 0.0%
Band Intensity (PKC-ε; 100 μg, PKC-ε Band 1, Table 10): 0.0
Inhibition (%) (PKC-ε; 100 μg, PKC-ε Band 1, Table 10): 100.0%
Relative Intensity (%) (PKC-ε; 100 μg, PKC-ε Band 1, Table 10): 0.0%
Band Intensity (PKC-ε; 100 μg, PKC-ε Band 2, Table 10): 0.0
Inhibition (%) (PKC-ε; 100 μg, PKC-ε Band 2, Table 10): 100.0%
Relative Intensity (%) (PKC-ε; 100 μg, PKC-ε Band 2, Table 10): 0.0%

RRKKGGKDFVVKR [PRE 1]
effect on antibody binding to PKC-β (PKC-β): some cross reactivity
Band Intensity (PKC-β; 75 μg): 0.825
Inhibition (%) (PKC-β; 75 μg): 28.9%
Relative Intensity (%) (PKC-β; 75 μg): 71.1%
Band Intensity (PKC-β; 300 μg): 0.528
Inhibition (%) (PKC-β; 300 μg): 54.5%
Relative Intensity (%) (PKC-β; 300 μg): 45.5%
